Laboratory results reported in US20250339445A1, “Modulators of Orphan Nuclear Receptors for Treating Pancreatitis, Glioblastoma, Sarcopenia and Stroke” (Emory University, priority 2020, published 2025).
“Also recorded” adds a separate entry of the source.

How the values were obtained:
[1] = tested on: high fat diet (HFD) C57BL/6 mice; test: HFD-fed C57BL/6 mice, 15 mg/kg Compound 1 (Example 8); assay type: in vivo
Procedure: (§1) Male C57BL/6J mice, 7 to 8 weeks old, were housed randomly in standard cages and were fed a HFD, or atherogenic diet (consisting 1% Chol and 0.5% cholic acid, see also Table 6). All mice had free access to water during the experimental period. During the feeding period body weight was monitored every 3 days. In the HFD experiment, after 4 or 6 weeks, the resultant obese mice were treated with antagomiR-122 (5 μg/mouse once a week for 3 weeks), or i.p. injected with Compound 1 (RORα agonist, 7.5 mg/kg twice a week for 3 weeks; or 15 mg/kg 3 times a week for 3 weeks). The obese control (HFD) group was administered only saline with DMSO and antagomiR-control. After 3 weeks of treatment mice were sacrificed and livers were taken for RNA-seq analysis. Livers, white adipose, and skeletal muscle tissues were frozen in liquid nitrogen or in optimum cutting temperature embedded frozen blocks, for further RNA and histologic analysis. In the atherogenic diet experiment mice were treated with 15 mg/kg Compound 1 after 3 weeks with the diet. After 3.5 weeks of treatment, mice were sacrificed, and the livers were frozen in liquid nitrogen or in optimum cutting temperature embedded frozen blocks. Plasma was collected from atherogenic diet-fed mice and saved in −20° C. for ALT and AST analysis using the Reflotron® Analyzer and test-strips (Roche).
Experimental design: C57BL/6 mice fed for 6 weeks with high fat diet (HFD) were injected with 15 mg/kg Compound 1 (or saline+DMSO) 3 times a week for 3 weeks (n=6).

Plasma half-life = assay type: in vivo, mice; conditions: mouse, read-out: plasma t1/2 (converted)
[2] = tested on: high-fat-fed C57BL/6 mice; test: High-fat-diet-fed C57BL/6 mice treated with Compound 1 and/or antagomiR-122; assay type: in vivo
Procedure: C57BL/6 mice were fed a 50% high fat diet (HFD) for four weeks. The control cohort received three hydrodynamic tail vein injections of a 5 μg antagomiR-control and six i.p injections of saline over three weeks. A second cohort was hydrodynamic tail vein injected with 5 μg antagomiR-122 (the reverse complement that inhibits activity of miR-122) three times and i.p injections of saline six times over three weeks. A third cohort was injected i.p. with Compound 1 (7.5 mg/kg) twice a week plus antagomiR-control once a week over the course of 3 weeks. The final cohort was injected i.p. with Compound 1 (7.5 mg/kg) twice a week plus antagomiR-122 injections once a week over the course of 3 weeks.
as §1
In the HFD experiment, after 4 or 6 weeks, the resultant obese mice were treated with antagoMIR122 (5 μg/mouse once a week for 3 weeks), or i.p. injected with Compound 1 (RORα agonist, 7.5 mg/kg twice a week for 3 weeks; or 15 mg/kg 3 times a week for 3 weeks). The obese control (HFD) group was administered only saline with DMSO and antagomiR-control.
Mice were fed with a 50% HFD and after 4 weeks, when fatty liver was already established, they were treated with Compound 1, antagoMIR122 or both compounds together for an additional 3 weeks. […] The weighing of mice began at week 3, one week before treatments were initiated. […] The liver weight of the mice was in accordance with their body weight.

half-life (Plasma half-life): 2.7 h
Compound: O=C1Nc2cc(C(=O)N3CCC(Cc4ccccc4)CC3)ccc2Nc2ccccc21 [Compound 1]
Expression of RORα-regulated genes FGF21 and Gpase6 ([1]; HFD 6 weeks, 15 mg/kg 3 times a week for 3 weeks, liver): significantly induced expression
miR-122 and precursors in plasma and liver ([1]; HFD 6 weeks, 15 mg/kg 3 times a week for 3 weeks, 15 mg/kg): induced expression and secretion; also recorded: increased
Hepatic synthesis of triglycerides ([1]; mice fed a HFD or atherogenic diet): reduced hepatic synthesis of triglycerides
Hepatic lipid droplets and TG content ([2]; 50% HFD, 7.5 mg/kg twice a week, 3 weeks): reduced
Body weight, Compound 1 co-administered with antagomiR-122 ([2]; 50% HFD, 3 weeks): returned exactly to that of control animals
Dgat1 (MIR122 target gene) in the liver ([2]; 50% HFD, 3 weeks of treatment): reduced
Energy expenditure (β-hydroxybutyrate plasma level as surrogate marker) ([2]; 50% HFD, 3 weeks of treatment): increases energy expenditure; also recorded: increase
FGF21 (RORα target gene) in the liver ([2]; 50% HFD, 3 weeks of treatment): increased
MIR122 levels in plasma and muscle (secretion) ([2]; 50% HFD, 3 weeks of treatment): enhanced; also recorded: increase of MIR122
Mature MIR122 level in the liver ([2]; 50% HFD, 3 weeks of treatment): no increase
Muscle TG levels ([2]; 50% HFD, 3 weeks of treatment): reduced
pri- and pre-MIR122 in the liver ([2]; 50% HFD, 3 weeks of treatment): increased significantly
Body weight ([2]; 50% HFD, Compound 1 7.5 mg/kg i.p. twice a week, antagomiR once a week, 3 weeks, 7.5 mg/kg): weight steadily decreased; also recorded: reduces body weight; also recorded: significant decrease in body weight
Hepatic RORα level ([2]; HFD-fed mice): increased the RORα level to its level in mice fed normal diet
